Experimental data: patent publication US20030207393A1, “Cbp86, a sperm specific protein” (priority 2002, published 2003)
“Also recorded” adds a separate entry of the source.

Columns and labels:
86 kDa form of CBP86 = test: In vitro capacitation of human sperm, anti-phosphotyrosine (RC-20) 2-D immunoblot of CBP86; format: cell-based; details: for Capacitation-induced tyrosine phosphorylation of the 86 kDa CBP86 isoforms: human sperm capacitated in HTF plus HSA plus 100 μμM progesterone plus 100, 200 or 400 μμM of inhibitor
Method: Preparation of semen specimens and solubilization of sperm proteins were performed as previously described (Naaby-Hansen et al, 1997a.) For analytical two-dimensional electrophoresis the detergent/urea extracted proteins were separated by isoelectric focusing (IEF) in acrylamide tube gels prior to second dimensional gel electrophoresis (SDS-PAGE), which was performed in a Protean II xi Multi-Cell apparatus (Bio-Rad, Richmond, Calif.) or on large format (23×23 cm) gels (Investigator 2-D Electrophoresis System, ESA) which were also employed for preparative 2D gel electrophoresis. Electrotransfer to nitrocellulose membranes and subsequent visualizing of the proteins by gold staining was accomplished as previously described (Naaby-Hansen et al, 1997) while electrotransfer to PVDF membranes ([…], Pierce) was carried out as described by Henzel et al. (1993) using the transfer buffer composition of Matsudaira (1987) (10 mM 3-[cyclohexylamino]-1-propanesulfonic acid, 10% methanol, pH 11). The immobilized proteins were visualized by staining in a solution containing 0.1% Commassie R250, 40% methanol and 0.1% acetic acid for one minute, followed by destaining in a solution of 10% acetic acid and 50% methanol for 3×3 minutes.
Motile sperm were harvested by the swim up method of Bronson and Fusi (1990). A control sample was removed and snap frozen (−70 C.), while the remaining sperm were resuspended in one of the following media: Dulbecco's PBS, BWW, BWW plus 3 mM b-cyclodextran (Sigma), BWW plus b-cyclodextran and 100 μμM progesterone, human tubal fluid [HTF] (Irvine) plus HSA (30 mg/ml), HTF plus HSA plus 2, 20 or 100 μμM progesterone, HTF plus HSA plus 100 μμM progesterone plus either 100, 200 or 400 μμM of genestein or daidzein. (Akiyama et al., 1987). Capacitation was achieved by incubating the samples at 37° C. in 5% CO2 with sperm removed at various timepoints and isolated by centrifugation. […]

[1] = system: T1, recombinant CBP86 (CR-A of CBP86 with C-terminal six-histidine tag, expressed in E. coli)
T1 sequence: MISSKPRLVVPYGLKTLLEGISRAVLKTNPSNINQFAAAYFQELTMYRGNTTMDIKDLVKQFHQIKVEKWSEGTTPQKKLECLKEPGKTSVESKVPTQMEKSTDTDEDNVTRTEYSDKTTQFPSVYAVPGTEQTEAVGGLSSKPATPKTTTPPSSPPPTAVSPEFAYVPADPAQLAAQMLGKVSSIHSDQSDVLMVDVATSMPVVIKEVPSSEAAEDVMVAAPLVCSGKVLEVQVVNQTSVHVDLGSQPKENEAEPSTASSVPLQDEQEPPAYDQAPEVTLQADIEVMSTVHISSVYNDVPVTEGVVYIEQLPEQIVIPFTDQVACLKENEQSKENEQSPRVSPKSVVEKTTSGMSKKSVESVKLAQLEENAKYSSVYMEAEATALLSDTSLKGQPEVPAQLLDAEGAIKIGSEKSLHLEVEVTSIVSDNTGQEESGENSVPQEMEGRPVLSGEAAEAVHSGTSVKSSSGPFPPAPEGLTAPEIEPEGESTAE

Molecule | Capacitation-induced tyrosine phosphorylation of the 86 kDa CBP86 isoforms (86 kDa form of CBP86) | further results
O=c1c(-c2ccc(O)cc2)coc2cc(O)ccc12 [daidzein] | had an inhibitory effect on phosphorylation of CBP86 | 
baculovirus expressed c-Src (Upstate Biotechnology, Inc.) |  | tyrosine phosphorylation of recombinant CBP86 in an in vitro kinase assay ([32P]ATP, SDS-PAGE, autoradiography) [1]: An increase in tyrosine phosphorylation of CBP86 was noted as its concentration increased in the presence of a constant amount of c-Src
CC(=O)[C@H]1CC[C@H]2[C@@H]3CCC4=CC(=O)CC[C@]4(C)[C@H]3CC[C@]12C [progesterone] |  | Tyrosine phosphorylation of the most acidic of the CBP86 isoforms (86 kDa form of CBP86; 100 microM added to HTF+ albumin capacitation media, compared with HTF plus albumin alone): further enhanced the phosphorylation; also recorded: leads to phosphorylation of tyrosine residues on the acidic CBP86 isoforms
O=c1c(-c2ccc(O)cc2)coc2cc(O)cc(O)c12 [genistein] | inhibited in a concentration dependent manner | 
